Data as given in the NIST ThermoML archive (doi:10.1016/j.fluid.2014.09.014).

Assay: refractive index (other wavelength) (dimensionless); xn = mol fraction of the nth substance listed
Details: 101 kPa, Liquid, Standard Abbe refractometry

CC(C)OC(C)C [diisopropyl ether] + CO
Details	refractive index
298.15 K, Wavelength=644 nm, x2 = 0.9233	1.33353
298.15 K, Wavelength=644 nm, x2 = 0.9253	1.33535
298.15 K, Wavelength=644 nm, x2 = 0.9527	1.33222
298.15 K, Wavelength=644 nm, x2 = 0.9773	1.32879
298.15 K, Wavelength=644 nm, x2 = 0.989	1.32761
298.15 K, Wavelength=644 nm, x2 = 0.9964	1.32621
298.15 K, Wavelength=706.5 nm, x2 = 0	1.36237
298.15 K, Wavelength=706.5 nm, x2 = 0.0423	1.36228
298.15 K, Wavelength=706.5 nm, x2 = 0.0424	1.36226
298.15 K, Wavelength=706.5 nm, x2 = 0.082	1.36224
298.15 K, Wavelength=706.5 nm, x2 = 0.0822	1.36226
298.15 K, Wavelength=706.5 nm, x2 = 0.1171	1.3621
298.15 K, Wavelength=706.5 nm, x2 = 0.1271	1.36211
298.15 K, Wavelength=706.5 nm, x2 = 0.1827	1.36175
298.15 K, Wavelength=706.5 nm, x2 = 0.2162	1.36228
298.15 K, Wavelength=706.5 nm, x2 = 0.251	1.36166
298.15 K, Wavelength=706.5 nm, x2 = 0.3298	1.36089
298.15 K, Wavelength=706.5 nm, x2 = 0.3577	1.35951
298.15 K, Wavelength=706.5 nm, x2 = 0.4497	1.35863
298.15 K, Wavelength=706.5 nm, x2 = 0.4525	1.35916
298.15 K, Wavelength=706.5 nm, x2 = 0.522	1.35694
298.15 K, Wavelength=706.5 nm, x2 = 0.5543	1.35655
298.15 K, Wavelength=706.5 nm, x2 = 0.609	1.35369
298.15 K, Wavelength=706.5 nm, x2 = 0.6529	1.35223
298.15 K, Wavelength=706.5 nm, x2 = 0.7504	1.34842
298.15 K, Wavelength=706.5 nm, x2 = 0.804	1.34426
298.15 K, Wavelength=706.5 nm, x2 = 0.807	1.34415
298.15 K, Wavelength=706.5 nm, x2 = 0.8727	1.33906
298.15 K, Wavelength=706.5 nm, x2 = 0.9233	1.33225
298.15 K, Wavelength=706.5 nm, x2 = 0.9253	1.33407
298.15 K, Wavelength=706.5 nm, x2 = 0.9773	1.32755
298.15 K, Wavelength=706.5 nm, x2 = 0.989	1.32641
298.15 K, Wavelength=706.5 nm, x2 = 0.9964	1.32502
303.15 K, Wavelength=40.47 nm, x2 = 0	1.37321
303.15 K, Wavelength=40.47 nm, x2 = 0.0423	1.37316
303.15 K, Wavelength=40.47 nm, x2 = 0.0424	1.37317
303.15 K, Wavelength=40.47 nm, x2 = 0.082	1.3731
303.15 K, Wavelength=40.47 nm, x2 = 0.0822	1.37318
303.15 K, Wavelength=40.47 nm, x2 = 0.1171	1.37301
303.15 K, Wavelength=40.47 nm, x2 = 0.1271	1.37303
303.15 K, Wavelength=40.47 nm, x2 = 0.1827	1.37268
303.15 K, Wavelength=40.47 nm, x2 = 0.2162	1.37251
303.15 K, Wavelength=40.47 nm, x2 = 0.251	1.3735
303.15 K, Wavelength=40.47 nm, x2 = 0.3298	1.37186
303.15 K, Wavelength=40.47 nm, x2 = 0.3577	1.37205
303.15 K, Wavelength=40.47 nm, x2 = 0.4497	1.3695
303.15 K, Wavelength=40.47 nm, x2 = 0.4525	1.37001
303.15 K, Wavelength=40.47 nm, x2 = 0.522	1.3677
303.15 K, Wavelength=40.47 nm, x2 = 0.5543	1.36716
303.15 K, Wavelength=40.47 nm, x2 = 0.609	1.36428
303.15 K, Wavelength=40.47 nm, x2 = 0.6529	1.36277
303.15 K, Wavelength=40.47 nm, x2 = 0.7504	1.35877
303.15 K, Wavelength=40.47 nm, x2 = 0.804	1.35438
303.15 K, Wavelength=40.47 nm, x2 = 0.807	1.35432
303.15 K, Wavelength=40.47 nm, x2 = 0.8727	1.34909
303.15 K, Wavelength=40.47 nm, x2 = 0.9233	1.34198
303.15 K, Wavelength=40.47 nm, x2 = 0.9253	1.34381
303.15 K, Wavelength=40.47 nm, x2 = 0.9527	1.34063
303.15 K, Wavelength=40.47 nm, x2 = 0.9773	1.33704
303.15 K, Wavelength=40.47 nm, x2 = 0.989	1.33587
303.15 K, Wavelength=40.47 nm, x2 = 0.9964	1.33483
303.15 K, Wavelength=435.8 nm, x2 = 0	1.37022
303.15 K, Wavelength=435.8 nm, x2 = 0.0423	1.37019
303.15 K, Wavelength=435.8 nm, x2 = 0.0424	1.37022
303.15 K, Wavelength=435.8 nm, x2 = 0.082	1.37014
303.15 K, Wavelength=435.8 nm, x2 = 0.0822	1.37022
303.15 K, Wavelength=435.8 nm, x2 = 0.1171	1.37006
303.15 K, Wavelength=435.8 nm, x2 = 0.1271	1.37006
303.15 K, Wavelength=435.8 nm, x2 = 0.1827	1.36973
303.15 K, Wavelength=435.8 nm, x2 = 0.2162	1.36956
303.15 K, Wavelength=435.8 nm, x2 = 0.251	1.36955
303.15 K, Wavelength=435.8 nm, x2 = 0.3298	1.36893
303.15 K, Wavelength=435.8 nm, x2 = 0.3577	1.36912
303.15 K, Wavelength=435.8 nm, x2 = 0.4497	1.36661
303.15 K, Wavelength=435.8 nm, x2 = 0.4525	1.36711
303.15 K, Wavelength=435.8 nm, x2 = 0.522	1.36484
303.15 K, Wavelength=435.8 nm, x2 = 0.5543	1.36432
303.15 K, Wavelength=435.8 nm, x2 = 0.609	1.36149
303.15 K, Wavelength=435.8 nm, x2 = 0.6529	1.35999
303.15 K, Wavelength=435.8 nm, x2 = 0.7504	1.35604
303.15 K, Wavelength=435.8 nm, x2 = 0.804	1.35174
303.15 K, Wavelength=435.8 nm, x2 = 0.807	1.35168
303.15 K, Wavelength=435.8 nm, x2 = 0.8727	1.34651
303.15 K, Wavelength=435.8 nm, x2 = 0.9233	1.3395
303.15 K, Wavelength=435.8 nm, x2 = 0.9253	1.34132
303.15 K, Wavelength=435.8 nm, x2 = 0.9527	1.33817
303.15 K, Wavelength=435.8 nm, x2 = 0.9773	1.33466
303.15 K, Wavelength=435.8 nm, x2 = 0.989	1.33351
303.15 K, Wavelength=435.8 nm, x2 = 0.9964	1.33219
303.15 K, Wavelength=486.1 nm, x2 = 0	1.36687
303.15 K, Wavelength=486.1 nm, x2 = 0.0424	1.36682
303.15 K, Wavelength=486.1 nm, x2 = 0.082	1.36677
303.15 K, Wavelength=486.1 nm, x2 = 0.0822	1.36685
303.15 K, Wavelength=486.1 nm, x2 = 0.1171	1.36669
